From paper PMC11472313, “Development of Fragment-Based Inhibitors of the Bacterial Deacetylase LpxC with Low Nanomolar Activity” (Journal of Medicinal Chemistry, 2024)
Where “and” joins values, the source holds several entries; their conditions need not be identical. Equal values may be shown once.

What was measured:
[1] = biological target: T1, P. aeruginosa LpxC (Pseudomonas aeruginosa, UniProt P47205); test: LC–MS/MS-based P. aeruginosa LpxC enzyme inhibition assay; assay type: biochemical; settings: from IC50 via Cheng–Prusoff
T1 construct: made in house; host or cells: E. coli BL21(DE3)
From the text: As Pseudomonas aeruginosa is one of the so-called ESKAPE pathogens,[56] being the leading cause of nosocomial infections throughout the world, and carbapenem-resistant P. aeruginosa strains were assigned the highest priority (priority 1: critical) within the “WHO priority pathogens list for R&D of new antibiotics” (WHO 2017),[57] new antibacterial agents combating these bacteria are urgently required. Thus, our newly developed LpxC inhibitors should be tested for inhibitory activity toward P. aeruginosa LpxC, which shares 57% sequence identity with E. coli LpxC.[28] Therefore, a liquid chromatography with tandem mass spectrometry (LC–MS/MS)-based P. aeruginosa LpxC assay was established. […] After incubation and subsequent termination of the enzymatic reaction, the samples were subjected to LC–MS/MS analysis. Following the chromatographic separation of substrate 1 and deacetylated product 2, the eluted compounds were ionized and subjected to fragmentation. Three multiple reaction monitoring (MRM) transitions were detected per compound [precursor ions: m/z (substrate 1) 832; m/z (deacetylated product 2) 790; product ions: m/z (product 1) 385, collision energy = −60 V; m/z (product 2) 159, collision energy = −80 V; m/z (product 3) 79, collision energy = −140 V]. The MRM transitions 832 → 79 of substrate 1 and 790 → 79 of product 2 were used as quantifiers; the other mass transitions were used as qualifiers.
The protocol of the LC–MS/MS-based P. aeruginosa LpxC assay was based on the E. coli LpxC C63A enzyme assay. Compared to the fluorescence-based enzyme assay, the substrate was diluted 1:10 and the inhibitors were diluted 1:4.
The wells in a black, nonbinding, 96-well fluorescence microplate (Greiner Bio One, Frickenhausen) were filled with 93 μL of 2.69 μM UDP-3-O-[(R)-3-hydroxymyristoyl]-N-acetylglucosamine in assay buffer [50 mM KH2PO4/K2HPO4 (pH = 7.5), 80 μM dithiothreitol, 0.02% Brij 35]. In order to assay the inhibitors at final concentrations from 5 nM up to 5 μM, 2 μL of a respective dilution of the compounds in DMSO were added. The addition of 5 μL of a solution of purified P. aeruginosa LpxC (5 μg mL^–1) in assay buffer led to final concentrations of 2.5 μM UDP-3-O-[(R)-3-hydroxymyristoyl]-N-acetylglucosamine, 7.5 nM P. aeruginosa LpxC, 2% DMSO, and from 5 nM up to 5 μM inhibitor. The microplate was incubated for 30 min at 37 °C in a plate shaker. Then, the biochemical reaction was stopped by adding 40 μL of 0.625 M hydrochloric acid. The reaction mixtures were further incubated for 10 min, sealed, and stored at −80 °C until analysis.
LC–MS/MS-Analysis. The reaction mixtures were separated by ultrahigh performance liquid-chromatography (1290 II Infinity UHPLC, Agilent Technologies), and the eluted compounds were analyzed by mass spectrometry using electrospray ionization in negative ion mode with a triple quadrupole linear ion trap mass spectrometer (QTRAP 5500, AB Sciex LLC).
To analyze the eluted compounds by mass spectrometry, a MRM method was applied. The specific parameters of this method are given in Table S2 (Supporting Information). After detection and selection of the precursor ions (1: m/z 832; 2: m/z 790), both analytes were fragmented, leading to three identical product ions [m/z (product 1) 385, collision energy = −60 V; m/z (product 2) 159, collision energy = −80 V; m/z (product 3) 79, collision energy = −140 V]. The mass transitions 832 → 79 (substrate 1) and 790 → 79 (product 2) were used as quantifiers; the other mass transitions were used as qualifiers. The ratio between substrate 1 and product 2 was quantified by comparing the peak areas of the quantifiers. The percentual inhibition caused by each inhibitor concentration was determined with respect to the amount of the product formed in the noninhibited reaction after 30 min.
Each assay was performed at least two times on separate days. […]

[2] = biological target: T2, TACE (ADAM-17) (Homo sapiens, UniProt P78536); test: TACE (ADAM-17) inhibitor screening kit; assay type: biochemical; settings: for inhibition at 20 µM: read-out: TACE (% inhibition at 20 μM)
T2 construct: purchased Sigma-Aldrich (Saint Louis, MO)
Method: Since LpxC and LasB are zinc-dependent enzymes, we investigated potential off-target activity of the three frontrunners on mammalian zinc-dependent enzymes. Our panel comprised three representative matrix-metalloproteases (MMP1–3) and tumor necrosis factor-α converting enzyme (TACE, also known as ADAM17) (Table 6).
Purification of LasB from P. aeruginosa PA14 supernatant and the subsequent performance of the FRET-based in vitro inhibition assay was performed as described previously.[66] The TACE (ADAM-17) inhibitor screening kit was purchased from Sigma-Aldrich (Saint Louis, MO). MMPs 1–3 along with the SensoLyte 520 Generic MMP Activity Kit Fluorimetric were purchased from AnaSpec (Fremont, CA, USA). The assays were performed according to the guidelines of the respective manufacturer. Fluorescence signals were measured using a CLARIOstar plate reader (BMG Labtech, Ortenberg, Germany).

[3] = log D7.4, HPLC-based method; assay type: physicochemical; settings: pH 7.4, HPLC-based; read-out: logD7.4
Method: Log D7.4 was analyzed using an HPLC-based method. The UV retention time of reference compounds with known log D7.4 was determined and plotted toward their log D7.4. Linear regression was used to determine the log D7.4 of unknown compounds. Analysis was performed using a Vanquish Flex HPLC system with a variable wavelength detector (Thermo Fisher, Dreieich, Germany) with the following conditions: EC150/2 NUCLEODUR C18 Pyramid column, […] (Macherey Nagel, Düren, Germany); eluent A: 50 mM NH4OAc pH 7.4, eluent B: acetonitrile, and flow: 0.6 mL/min; gradient elution: (B %): 0–2.5 min: gradient from 0 to 100%, 2.5–3.0 min: 100%, 3.0–3.2 min: gradient from 100 to 0%, 3.2–5.0 min: 0%.

[4] = plasma protein binding, mouse; assay type: in vitro ADME; settings: for fraction unbound: plasma
Method: (§1) The microsomal metabolic stability assay as well as the plasma protein binding assay were conducted as described previously.[78]

[5] = microsomal metabolic stability, human; assay type: in vitro ADME; settings: human liver microsomes; for half-life: read-out: microsomal metabolic stability t1/2
Method: Also, the plasma stability of the compounds in mouse plasma was generally low with half-lives between 22.9 min [(S)-13h] and 43.1 min [(S)-13j].
as §1
Samples were analyzed using an Agilent 1290 Infinity II HPLC system coupled to an AB Sciex QTrap 6500plus mass spectrometer. LC conditions were as follows: column: Agilent Zorbax Eclipse Plus C18, 50 × 2.1 mm, 1.8 μm; temperature: 30 °C; injection volume: 5 μL per sample; flow rate: 700 μL min^–1. Samples were run under acidic conditions. Solvents: (A) water + 0.1% formic acid; (B) 95% acetonitrile/5% H2O + 0.1% formic acid. Gradient elution: (A %): 0–0.1 min: 99%, 0.1–3.5 min: gradient from 99 to 50%, 3.5–3.8 min: gradient from 50 to 0%, 3.8–4.7 min: gradient from 0 to 99%. Mass transitions for controls and compounds are depicted in Table S3.

T1 sequence (P47205 whole entry): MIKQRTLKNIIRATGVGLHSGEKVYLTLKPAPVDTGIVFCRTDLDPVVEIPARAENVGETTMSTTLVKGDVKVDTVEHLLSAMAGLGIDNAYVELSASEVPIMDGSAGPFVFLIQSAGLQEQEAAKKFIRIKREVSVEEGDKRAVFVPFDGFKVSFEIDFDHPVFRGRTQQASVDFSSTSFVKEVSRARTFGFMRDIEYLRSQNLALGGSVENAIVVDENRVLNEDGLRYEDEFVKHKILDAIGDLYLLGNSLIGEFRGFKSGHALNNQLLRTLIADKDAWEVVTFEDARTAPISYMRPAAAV
T2 sequence (P78536 215-824, species assumed): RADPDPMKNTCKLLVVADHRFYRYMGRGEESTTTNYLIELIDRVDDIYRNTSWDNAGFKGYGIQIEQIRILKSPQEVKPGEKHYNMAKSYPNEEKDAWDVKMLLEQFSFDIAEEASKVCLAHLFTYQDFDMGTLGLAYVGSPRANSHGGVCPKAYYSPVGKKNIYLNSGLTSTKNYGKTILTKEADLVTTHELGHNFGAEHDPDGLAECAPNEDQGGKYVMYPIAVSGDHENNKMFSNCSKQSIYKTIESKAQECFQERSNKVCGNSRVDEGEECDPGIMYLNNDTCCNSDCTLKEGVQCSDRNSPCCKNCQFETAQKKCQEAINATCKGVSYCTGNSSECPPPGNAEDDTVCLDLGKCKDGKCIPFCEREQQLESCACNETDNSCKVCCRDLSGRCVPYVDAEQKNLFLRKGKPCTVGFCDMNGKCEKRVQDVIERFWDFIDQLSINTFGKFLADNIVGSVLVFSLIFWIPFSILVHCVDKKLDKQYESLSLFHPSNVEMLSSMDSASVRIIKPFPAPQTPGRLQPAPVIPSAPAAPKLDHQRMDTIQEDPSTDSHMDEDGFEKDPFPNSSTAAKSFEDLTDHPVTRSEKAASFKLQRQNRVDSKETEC

SMILES: O=C(NO)[C@H](COCc1ccccc1)OCc1ccc(C#Cc2ccc(CN3CCOCC3)cc2)cc1 [(S)-11a, (S)-3-(Benzyloxy)-N-hydroxy-2-[(4-{[4-(morpholinomethyl)phenyl]ethynyl}benzyl)oxy]propanamide]
- Ki [1]: 725 ± 335 nM

SMILES: O=C(NO)[C@H](CNCc1ccccc1)OCc1ccc(C#Cc2ccc(CN3CCOCC3)cc2)cc1 [(S)-12a, (S)-3-(Benzylamino)-N-hydroxy-2-[(4-{[4-(morpholinomethyl)phenyl]ethynyl}benzyl)oxy]propanamide]
- Ki [1]: 862 ± 70 nM

SMILES: O=C(NC[C@H](OCc1ccc(C#Cc2ccc(CN3CCOCC3)cc2)cc1)C(=O)NO)c1ccccc1 [(S)-13a, (S)-N-{3-(Hydroxyamino)-2-[(4-{[4-(morpholinomethyl)phenyl]ethynyl}benzyl)oxy]-3-oxopropyl}benzamide]
- Ki [1]: 58.2 ± 0.1 nM

SMILES: O=C(NC[C@H](OCc1ccc(C#Cc2ccc(CN3CCOCC3)cc2)cc1)C(=O)NO)c1cccc(-c2ccccc2)c1 [(S)-13c]
- Ki [1]: 149 ± 14 nM

SMILES: O=C(NC[C@H](OCc1ccc(C#Cc2ccc(CN3CCOCC3)cc2)cc1)C(=O)NO)c1ccc(Oc2ccccc2)cc1 [(S)-13d]
- Ki [1]: 196 ± 18 nM

SMILES: O=C(NC[C@H](OCc1ccc(C#Cc2ccc(CN3CCOCC3)cc2)cc1)C(=O)NO)c1ccc2ccccc2n1 [(S)-13e]
- Ki [1]: 168 ± 8 nM

SMILES: O=C(NC[C@H](OCc1ccc(C#Cc2ccc(CN3CCOCC3)cc2)cc1)C(=O)NO)c1cnc2ccccc2c1 [(S)-13f]
- Ki [1]: 91.1 ± 17.5 nM

SMILES: O=C(NC[C@H](OCc1ccc(C#Cc2ccc(CN3CCOCC3)cc2)cc1)C(=O)NO)c1cc2ccccc2[nH]1 [(S)-13g]
- Ki [1]: 46 ± 16.4 nM

SMILES: O=C(NC[C@H](OCc1ccc(C#Cc2ccc(CN3CCOCC3)cc2)cc1)C(=O)NO)c1c[nH]c2ccccc12 [(S)-13h]
- Ki [1]: 5.91 ± 1.47 nM
- inhibition at 20 µM [2]: < 10%
- chromatographic logD [3]: 3.63
- fraction unbound [4]: 0.0541
- microsomal CLint [5]: < 23 µL/min/mg
- half-life [5]: > 1 h

SMILES: O=C(NC[C@H](OCc1ccc(C#Cc2ccc(CN3CCOCC3)cc2)cc1)C(=O)NO)c1cccc2[nH]ccc12 [(S)-13i]
- Ki [1]: 10.3 ± 2 nM

SMILES: O=C(NC[C@H](OCc1ccc(C#Cc2ccc(CN3CCOCC3)cc2)cc1)C(=O)NO)c1ccc2[nH]ccc2c1 [(S)-13j]
- Ki [1]: 5.6 nM and 5.58 nM
- inhibition at 100 µM ([2]; 100 μM (as printed in text)): 38%
- inhibition at 20 µM [2]: 38 ± 5%
- chromatographic logD [3]: 3.33
- fraction unbound [4]: 0.0795
- microsomal CLint [5]: < 23 µL/min/mg
- half-life [5]: > 1 h

SMILES: O=C(NC[C@H](OCc1ccc(C#Cc2ccc(CN3CCOCC3)cc2)cc1)C(=O)NO)c1ccc[nH]1 [(S)-13k]
- Ki [1]: 29 ± 7.6 nM

SMILES: O=C(NC[C@H](OCc1ccc(C#Cc2ccc(CN3CCOCC3)cc2)cc1)C(=O)NO)c1cc[nH]n1 [(S)-13l]
- Ki [1]: 18 ± 2.9 nM
- IC50 [2]: 5400 nM
- selectivity factor for TACE ([2]; TACE versus LpxC): 8.4
- inhibition at 20 µM [2]: 81 ± 2%
- chromatographic logD [3]: 2.43
- plasma protein binding mouse [4]: 79.42 ± 2.5%
- fraction unbound [4]: > 0.2
- microsomal CLint [5]: < 23 µL/min/mg
- half-life [5]: > 1 h

SMILES: O=C(NC[C@H](OCc1ccc(C#Cc2ccc(CN3CCOCC3)cc2)cc1)C(=O)NO)c1cc(-c2ccccc2)[nH]n1 [(S)-13m]
- Ki [1]: 41.9 ± 18.5 nM

SMILES: Cc1noc(C)c1C(=O)NC[C@H](OCc1ccc(C#Cc2ccc(CN3CCOCC3)cc2)cc1)C(=O)NO [(S)-13n]
- Ki [1]: 80.4 ± 9.7 nM

SMILES: O=C(NO)[C@H](CN(Cc1ccccc1)Cc1ccccc1)OCc1ccc(C#Cc2ccc(CN3CCOCC3)cc2)cc1 [(S)-37, (S)-3-(Dibenzylamino)-N-hydroxy-2-[(4-{[4-(morpholinomethyl)phenyl]ethynyl}benzyl)oxy]propanamide]
- Ki [1]: > 3250 nM
